{Fluor} = fluorophore: 5-carboxyfluorescein (FAM) or Alexa Fluor 488
Key:
Cells = experiment: Antiproliferative MTT assay (FIG. 7); type: cell-based
Description: FIG. 7 are graphs showing the results of comparative experiments. (Panel A) Cells were plated in 96-well plates at low density (1,000 cells per well) and incubated 18 hrs at 37° C. to allow adherence. Cells were treated by addition of different concentrations of AS1411 (obtained from Antisoma), AS1411 (obtained from Invitrogen), tAS1411, FL-AS1411, CRO, or tCRO directly to the medium, and proliferation was measured using a 3-(4,5-dimethylthiazol-2-yl)-2,5-diphenyltetrazolium bromide assay as described previously (Bates et al., 1999, J. Biol. Chem., 274:26369-77). Points represent mean of triplicate samples with SE. (Panel B) 10 μM FL-AS1411 or 10 μM FL-CRO were added to DU145 cells plated on 6-well plates. After incubation at 37° C. for 2 hrs, cells were washed twice with ice-cold PBS and harvested by trypsin treatment. Some cells were washed twice with ice-cold PBS containing dextran sulfate ([…]) or trypan blue ([…], pH 4.4). Cells were resuspended in ice-cold PBS and immediately analyzed by flow cytometry.
Oligodeoxynucleotides were purchased from Invitrogen (Carlsbad, Calif.). […]

Hs27 cells = experiment: Uptake of fluorophore-labeled oligonucleotides by flow cytometry; type: cell-based, human; details: 10 μM, 2 h
Description: FIG. 1 are graphs showing that AS1411 cell internalization is an active process. Cells were plated 18 h before uptake analysis. After incubation as described, cells were washed with ice-cold PBS, incubated with 1 μg/ml 7-AAD, harvested and resuspended in 1% paraformaldehyde containing 2 μg/ml actinomycin D, then analyzed by flow cytometry. (Panel A) DU145 cells were incubated at 37° C. with fresh complete DMEM medium containing 10 μM FL-AS1411 (black line) or 10 μM FL-CRO (gray line) for the time indicated. (Panel B) DU145 cells were incubated for 2 h at 37° C. in complete or serum-free DMEM medium containing 10 μM FL-AS1411, or 10 μM FL-CRO, or no oligonucleotide. (Panel C) Various cell lines were incubated with 10 μM FL-AS1411 (black outline histogram), 10 μM FL-CRO (gray outline histogram) or without DNA (solid gray histogram) at 37° C. or 4° C. for 2 h. All experiments were repeated at least three times. Data are mean of three independent samples; bars, SE; *(p<0.05).
FIG. 2 are graphs showing that AS1411 is internalized by different endocytic mechanisms in DU145 cancer cells and in non-malignant Hs27 cells. DU145 or Hs27 cells were plated 18 h before uptake analysis. Cells were pre-treated as described with inhibitor (gray histogram) or the corresponding vehicle control (black histogram) before addition of 10 μM FL-AS1411 and incubation at 37° C. for 2 h. After incubation, cells were harvested and analyzed by flow cytometry. Pre-treatment conditions were at 37° C. with: (Panel A) 5 μM Cytochalasin D for 30 min; (Panel B) 80 μM Dynasore for 30 min; or (Panel C) 3 mM amiloride for 1 h. All experiments were repeated at least three times and representative data are shown. Solid gray histograms represent background autofluorescence of unstained cells.
FIG. 9 are graphs showing the effects of inhibitors on various endocytic pathways. DU145 or Hs27 cells were plated 18 hr before uptake analysis. (Panel A) DU145 cells were pre-treated with dynamin inhibitor, […] Dynasore (black histogram) or DMSO (gray histogram) for 30 min at 37° C. After pre-treatment, cells were treated with […] transferrin conjugated with Alexa Fluor 488 for 30 min at 37° C. (Panel B) DU145 and Hs27 cells were pre-treated with 3 mM amiloride (black histogram) or vehicle (serum-free medium, gray histogram) for 1 h at 37° C. After pre-treatment, FL-CRO was added at a concentration of 10 μM and incubated at 37° C. for 2 h. After incubation, cells were harvested and analyzed by FACS. Gray solid histogram represents unstained cells.
To analyze uptake of the oligodeoxynucleotides or dextran-10K (macropinocytic marker) by flow cytometry, 2×10^5 cells in fresh supplemented culture medium (2.5 ml) were plated into 6-well plates for 18 h. […]

DU145 cells = experiment: Cell death / cytotoxicity; type: cell-based

Substance	antiproliferative activity (Cells)	uptake in Hs27 cells compared with cancer cells (Hs27 cells)	timing of cell death (DU145 cells; 40 μM AS1411)	cytotoxicity at higher concentrations (DU145 cells; concentrations higher than 40 μM, early time point (2 h))
5′-Fluor-d(TTTCCTCCTCCTCCTTCTCCTCCTCCTCC) (DNA TTTCCTCCTCCTCCTTCTCCTCCTCCTCC; DNA, 5' {Fluor}, backbone and methylation of C not given here) [FL-CRO, reference compound]	no antiproliferative activity			
5′-d(GGTGGTGGTGGTTGTGGTGGTGGTGG) [AS1411]		higher uptake of AS1411 than any of the cancer cells analyzed	within hours	apparent cytotoxicity
